Measured values reported in US20240118263A1, “TARGET FOR SCREENING ANTI-TUMOR DRUG, USE THEREOF AND SCREENING METHOD THEREFOR” (SHENYANG FUYANG PHARMACEUTICAL TECHNOLOGY CO., LTD., priority 2019, published 2024).
Entries after “also recorded” stand apart in the source; their conditions may differ.

Legend:
786-O xenograft = experiment: 786-O subcutaneous xenograft model; assay type: in vivo, NSG mice; conditions: 35 mg/kg intraperitoneally daily, vs control
Method: (§1) For subcutaneous xenografts, NSG mice (6-8 weeks old) from the NCI-Frederick animal facility and Jackson Lab (Bar Harbor, ME USA) were injected with 5×10^6 to 1×10^7 cells subcutaneously in the flank. One week later, the tumor-bearing mice were randomly assigned to different groups and made the tumor volume baseline equivalent and treated with normal saline or Zenomycin (35 mg/kg) everyday intraperitoneally. Tumors were measured using a caliper, and volume was calculated.

[1] = system: human non-small cell lung cancer cells A549; experiment: MTT in-vitro anti-tumor activity test, A549; conditions: MTT
Method: (§3) Experimental Materials Human non-small cell lung cancer cells A549, mouse breast cancer cells 4T-1 and mouse melanoma B16-BL6 were purchased from American Type Current Collection (ATCC, Rockville, MD, USA). An RPMI-1640 culture solution containing 10% of fetal calf serum and 2% of glutamine was inoculated with the A549, 4T-1 and B16-BL6 cells, and the cells were incubated at 37° C. in a 5% CO2 incubator.
(§4) The compounds were dissolved in DMSO under a sterile condition, and the obtained solutions were diluted to required concentrations by using an RPMI 1640 culture solution, wherein the final concentration of the DMSO was less than 0.5%.
MTT reduction method is used.
(§5) A549, 4T-1 and B16-BL6 were used as adherent cells, adherent tumor cells in a logarithmic phase were selected, digested with pancreatin, and then prepared into a cell suspension of 5×10^4/ml with a culture medium containing 10% of calf serum, a 96-well culture plate was inoculated with the cell suspension, wherein each well contained 100 μl of the cell suspension, and incubation was carried out for 24 h at 37° C. and 5% CO2. Replacing was carried out with a new culture solution containing the samples to be detected of different concentrations in the experimental groups, replacing was carried out with a culture solution containing a same volume of solvent in the control group, three parallel wells were set in each group, and incubation was carried out for 48 hours at 37° C. and 5% CO2. The supernate was discarded, careful washing was carried out with PBS twice, 100 μl of a freshly prepared culture medium containing 0.5 mg/ml of MTT was added into each well, and incubation was continued to be carried out at 37° C. for 4 h. The supernatant was carefully discarded, 150 μl of DMSO was added, uniform mixing was carried out for 10 min by using a micro oscillator, and the optical density value was measured at 492 nm by using a microplate reader.
(§6) Tumor cell growth inhibition ratio (%)=[A492 (negative control)−A492 (dosing group)]/A492 (negative control)×100%
(§7) The median inhibitory concentration (IC50) of the sample is calculated.

[2] = system: LN229-luc intracranial tumor; experiment: Intracranial LN229-luc glioblastoma xenograft mouse model; assay type: in vivo, NSG mice; conditions: ISP I 66 mg/kg intraperitoneally daily, vs control group
From the text: The inventors first assessed ISP I's anti-tumor activity in an intracranial mouse model (FIG. 13A). NSG mice were inoculated with 1×10^5 LN229-luc cells in the right-frontal cortex. After 7 days, intracranial tumor growth was confirmed via noninvasive in vivo bioluminescence imaging and mice were randomized into ISP I or DMSO (control) treatment groups.
Mice experiments were approved by the National Institute of Neurological Disorders and Stroke (NINDS) and National Cancer Institute (NCI) Animal Use and Care Committees. For intracranial xenografts establishment, NOD-Prkde^scidIl2rg^tmiWjl (NSG) mice (6-8 weeks old from the NCI-Frederick animal facility) were inoculated intracranially with 100,000 LN229-luc cells suspended in 2 μL Hank's Balanced Salt Solution (HBSS), a product of Crystalgen (Commack, NY USA). After one week, luciferin signals were detected to confirm the survival of tumor cells in mice. The mice were assigned to the indicated groups according to the signal intensity, in order to keep the baseline balanced. ISP I was injected intraperitoneally daily at a dose of 66 mg/kg body weight for 24 days. The mice in control group were injected with the same volume of corn oil or saline. The viability of tumors was monitored every four days. […]

[3] = Veterinary histopathology review of major organs and clinical chemistry; assay type: in vivo; conditions: 24 days after treatment
786-O and RCC4 cells = experiment: Annexin V apoptosis analysis, RCC cells; assay type: cell-based
Method: Cell viability was assessed similarly via CKK8 analysis. […] (FIG. 10C, D).
(§2) Cell apoptosis and cell cycle: Cells (2×10^5) were plated in 6-well plates and treated with different concentrations of ISP I. Then the cells were harvested and washed three times with PBS. Cells were resuspended in 100 μl binding buffer and were incubated with 5 μl APC-conjugated Annexin V working solution, a product of BD bioscience (Franklin Lakes, NJ USA), and 1 μl propidium iodide (PI), a product of Invitrogen, for 15 min at room temperature with protection from light. Data acquisition and quantification were processed with BD LSRFortessa flow cytometer, using FlowJo software (Ashland, OR USA).

[4] = system: human non-small cell lung cancer cells A549
Method: as §3, §4
MTT reduction method is used.
as §5, §6, §7

IOMM xenograft = experiment: IOMM meningioma subcutaneous xenograft model; assay type: in vivo, Nude mice; conditions: 35 mg/kg intraperitoneally daily, vs control
Method: as §1

SELH [5] = biological target: T1, SELH (Homo sapiens (Human), UniProt Q8IZQ5); experiment: Drug affinity responsive target stability (DARTS) assay in LN229 cells; assay type: binding; conditions: LN229 lysate, ISP I 40 μg/mL, mass spectroscopy
Method: (2) To identify ISP I's molecular target, the inventors performed drug affinity responsive target stability (DARTS) assay in LN229 cells.
The inventors discovered that the binding of ISP I to its target proteins temporarily locks them into a stable conformational structure, which prevents their recognition by proteases. After evading protease degradation, the identity of ISP I's target proteins was determined using mass spectroscopy.
DARTS assay data were taken to identify the target of ISP I in vitro. For this assay, the invenots used the protocol published by Lomenick et al., Proc. Nat'l Acad. Sci. USA 106: 21984 (2009). Briefly, LN229 cells were lysed with M-PER (Pierce) supplemented with protease and phosphatase inhibitors. After centrifugation at 14,000 rpm for 15 min, lysates were diluted to the same final volume and protein concentration with M-PER and were dissolved in TNC buffer [50 mM Tris-HCl (pH 8.0), 50 mM NaCl, 10 mM CaCl2]. All steps were performed on ice or at 4° C. to help prevent premature protein degradation. […] Peptides were analyzed by LC/MS/MS on a Thermo LTQ-Orbitrap mass spectrometer with an Eksigent LC pump. For quantitative comparison of protein and peptide abundances, MS spectra were analyzed by means of the differential workflow of Rosetta Elucidator (Rosetta Inpharmatics).

SELH [6] = biological target: T1, SELH; experiment: Thermo-stability assay (CETSA) in LN229 and 786-O cell lines; assay type: binding; conditions: western blot, vs DMSO
From the text: Next, the inventors used a thermo-stability assay to confirm SELH was targeted by ISP I in LN229 and 786-O cell lines. The principle of the assay is based on altered protein thermal stabilization/destabilization due to ligand binding in living cells. […] (FIG. 11B and FIG. 12A). To verify further the specificity of ISP I's targeting of SELH, the inventors designed a surface plasmon resonance assay to assess the interaction of ISP I with SELH synthesized in bacteria.
CETSA experiments were performed to determine the ISP I-related ligand induced shifts. Intact and live cells in a 10-cm dish were harvested, washed and resuspended in PBS with protease inhibitor cocktail. Protein of the cells was extracted by freeze-thaw more than three times, using liquid nitrogen. The supernatant was centrifuged at 20,000 g for 20 min at 4° C. Then the samples were aliquoted to several groups incubated with different concentrations of ISP I for 1 hour. After that, samples were aliquoted into PCR tubes and thereafter heated at gradient temperature ranging from 40° C. to 80° C. for 3 min. Then the samples were centrifuged again and resolved using 4-12% SDS-PAGE followed by western blot experiments.

LN229 and U251 cells = experiment: Annexin V apoptosis flow cytometry, glioblastoma cells; assay type: cell-based
Method: as §2

T1 sequence (Q8IZQ5 whole entry): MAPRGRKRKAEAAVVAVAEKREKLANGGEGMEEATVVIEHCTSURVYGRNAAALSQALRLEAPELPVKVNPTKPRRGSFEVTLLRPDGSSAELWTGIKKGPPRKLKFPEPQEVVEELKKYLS

## CO[C@@H]1[C@@H](O[C@@H]2O[C@H](C)[C@@H](O[C@H]3C[C@@](C)(O)[C@@H](OC(=O)CC(C)C)[C@H](C)O3)[C@H](N(C)C)[C@H]2O)[C@@H](CC=O)C[C@@H](C)[C@@H](O[C@H]2CC[C@H](N(C)C)[C@@H](C)O2)/C=C/C=C/C[C@@H](C)OC(=O)C[C@H]1O [Isovalerylspiramycin I, 4″-isovalerylspiramycin I]
786-O xenograft
  tumor size and weight, 786-O xenograft: significantly reduced tumor size and weight
[1]
  inhibition effect on A549 cells (in words): significantly inhibited the human lung cancer A549 cells
[2]
  tumor growth by bioluminescence imaging: significantly reduced tumor growth; also recorded: complete response
[3]
  toxicities in major organs and clinical chemistry: no hematologic, renal, pancreatic or liver toxicities
786-O and RCC4 cells
  apoptosis (Annexin V): dose-dependent apoptosis
[4]
  A549 IC50 cytotoxicity: 1.29 µg/mL
IOMM xenograft
  tumor size and weight, IOMM xenograft: significantly reduced tumor size and weight
SELH [5]
  target protein identified by DARTS: SELH was the most abundant primary protein
SELH [6]
  thermal protection of SELH: protective effect of ISP I on SELH was present over a range of increasing temperatures
LN229 and U251 cells
  apoptosis (Annexin V stain): dose-dependent apoptosis
